Experimental data as given in PMC5826112, “Intrapulmonary Pharmacokinetics of Relebactam, a Novel β-Lactamase Inhibitor, Dosed in Combination with Imipenem-Cilastatin in Healthy Subjects” (Antimicrobial Agents and Chemotherapy, 2018).

Assay: Safety and tolerability in healthy subjects
Type: in vivo, human (healthy subjects)
Conditions: with imipenem-cilastatin
Excerpt: The safety and tolerability of relebactam were monitored by clinical assessment of adverse events, measurement of vital signs, and performance of a physical examination, 12-lead electrocardiogram (ECG), and standard laboratory safety tests (hematology, chemistry, and urinalysis). Renal function (established by determination of serum/urine creatinine, serum urea, urine protein, and urine albumin concentrations) and hepatic function (established by determination of serum bilirubin, alanine aminotransferase, and aspartate aminotransferase concentrations) were carefully monitored during the study. The safety of bronchoscopy and BAL was monitored by clinical assessment, including continuous cardiac monitoring and repeated measurements of vital signs, according to the standard operating procedures at the study site. All data were analyzed according to the treatment actually received. Safety and tolerability were assessed in the all-subjects-as-treated (AST) population, defined as all subjects who received at least one dose of study drug.

O=C(NC1CCNCC1)[C@@H]1CC[C@@H]2CN1C(=O)N2OS(=O)(=O)O [relebactam]
tolerability: sufficiently well tolerated
